In paper PMC4904746 (EXCLI Journal, 2013):
Entries after “also recorded” stand apart in the source; their conditions may differ.

Molecular target: α-glucosidase from recombinant Saccharomyces cerevisiae (Saccharomyces cerevisiae, UniProt P53341)
Assay: α-glucosidase inhibitory activity assay
Format: biochemical
Settings: comparison among the fractions and compounds 1-8 isolated from CCF

Chain of α-glucosidase from recombinant Saccharomyces cerevisiae (P53341 whole entry): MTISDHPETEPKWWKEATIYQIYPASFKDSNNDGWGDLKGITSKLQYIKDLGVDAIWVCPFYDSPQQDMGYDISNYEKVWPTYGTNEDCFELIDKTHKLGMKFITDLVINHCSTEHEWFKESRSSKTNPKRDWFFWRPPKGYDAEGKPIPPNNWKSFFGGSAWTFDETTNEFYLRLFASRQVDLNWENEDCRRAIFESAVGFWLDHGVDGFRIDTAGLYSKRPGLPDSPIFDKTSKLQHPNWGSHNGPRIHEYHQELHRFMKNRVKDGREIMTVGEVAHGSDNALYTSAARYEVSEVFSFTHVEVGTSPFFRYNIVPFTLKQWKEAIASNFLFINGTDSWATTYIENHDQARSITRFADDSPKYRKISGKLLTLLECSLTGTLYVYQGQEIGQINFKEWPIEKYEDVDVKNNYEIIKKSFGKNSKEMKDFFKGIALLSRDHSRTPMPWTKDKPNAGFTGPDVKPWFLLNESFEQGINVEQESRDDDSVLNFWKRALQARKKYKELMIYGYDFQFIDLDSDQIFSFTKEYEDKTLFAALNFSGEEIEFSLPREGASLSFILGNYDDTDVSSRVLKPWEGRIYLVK

SMILES | α-glucosidase inhibitory activity (comparison in words)
O=c1c(O)c(-c2ccc(O)cc2)oc2cc(O)cc(O)c12 [Compound 3, kaempferol] | higher α-glucosidase inhibitory activity than the flavonoid
O=c1c(O[C@@H]2O[C@H](CO)[C@H](O)[C@H](O)[C@H]2O)c(-c2ccc(O)c(O)c2)oc2cc(O)cc(O)c12 [Compound 4, hyperin] | more significant inhibitory activity against α-glucosidase than other mono-hydroxy flavonoids
O=c1c(O)c(-c2ccc(O)c(O)c2)oc2cc(O)cc(O)c12 [Compound 6, quercetin] | higher α-glucosidase inhibitory activity than the flavonoid; also recorded: more significant inhibitory activity against α-glucosidase than other mono-hydroxy flavonoids; also recorded: highest α-glucosidase inhibitory activity
O=c1c(O)c(-c2ccc(O)cc2)oc2cc(O[C@@H]3O[C@H](CO)[C@@H](O)[C@H](O)[C@H]3O)cc(O)c12 [Compound 8, kaempferol-7-O-β-D-glucoside] | higher α-glucosidase inhibitory activity than the flavonoid
